The text below walks through data of article PMC6112376, “Comprehensive Analyses and Prioritization of Tox21 10K Chemicals Affecting Mitochondrial Function by in-Depth Mechanistic Studies” (Environmental Health Perspectives, 2018).

The subject of data set [1] is rat primary hepatocytes.
Data set [2] has as its system rat primary hepatocytes. Kind of data set: MMP assay in rat primary hepatocytes. Particulars: for IC50: Rattus norvegicus, Hepatocyte, read-out: MMP assays IC50 (µM) Rat Hepatocytes; call rule not given here.
Data set [3] concerns HepG2 cells. The data set can be described thus: cells. Particulars: Homo sapiens; for IC50: HepG2, read-out: MMP assays IC50 (µM) HepG2; for Emax: HepG2, read-out: MMP assays efficacy (%) HepG2.
Data set [4] relates to HepG2 cells. Particulars: cited from earlier work.
Setting [5] is: read-out: MMP assays IC50 (µM) qHTS-HepG2.
Setting [6] is: read-out: MMP assays IC50 (µM), qHTS-HepG2.

Counter-ions that a name gives are not always drawn. Like-named read-outs stand apart in the source and are kept apart here.

Take `C[C@]12CC[C@@H]3c4ccc(O)cc4CC[C@H]3[C@@H]1CC[C@H]2O` [Compound 17alpha-Estradiol]: the “MMP assays efficacy (%) Rat Hepatocytes” value with rat primary hepatocytes [1] was -64±3%. In addition, the IC50 – broadly, the concentration needed to halve the response being measured – in the data set on rat primary hepatocytes [2] is 35.5 µM; in the data set on HepG2 cells [3], 22.4 µM; in the data set on HepG2 cells [4] (setting [5]) it was 37.8 ± 13.9 µM. Also, the Emax with HepG2 cells [3] was 105%. The “MMP assays efficacy (%) qHTS-HepG2” value in the data set with HepG2 cells [4] is given as -106±11%.
Turning to `O=C(CCc1ccc(O)cc1)c1c(O)cc(O)cc1O` [Phloretin], the “MMP assays efficacy (%) Rat Hepatocytes” value with rat primary hepatocytes [1] was -74±26%. The IC50 is 10.6 ± 4.98 µM in the data set with rat primary hepatocytes [2], 11.2 µM with HepG2 cells [3] and 4.26 ± 1.22 µM in the data set with HepG2 cells [4] (setting [6]). In the data set on HepG2 cells [3], the Emax amounted to 100%. For the same compound, in the data set on HepG2 cells [4], the “MMP assays efficacy (%) qHTS-HepG2” value is -107±12%.
Take `Cc1ccccc1C(=O)Nc1cccc(OC(C)C)c1` [Mepronil]: the “MMP assays efficacy (%) Rat Hepatocytes” value in the data set with rat primary hepatocytes [1] is given as -39±16%. The IC50 is 56.2 µM with rat primary hepatocytes [2], 39.8 µM in the data set on HepG2 cells [3] and 40.9 ± 19.2 µM with HepG2 cells [4] (setting [6]). For the same compound, in the data set on HepG2 cells [3], the Emax came out at 72%. Moreover, the “MMP assays efficacy (%) qHTS-HepG2” value in the data set on HepG2 cells [4] is reported as -73±6%.
Consider `CC(COc1ccccc1)N(CCCl)Cc1ccccc1` (stereo not drawn) [Phenoxybenzamine hydrochloride], for which, in the data set with rat primary hepatocytes [1], the “MMP assays efficacy (%) Rat Hepatocytes” value is “inactive”. For the same compound, the “MMP assays IC50 (µM) Rat Hepatocytes” value in the data set on rat primary hepatocytes [2] was “inactive”. Moreover, in the data set on HepG2 cells [3], the IC50 was 35.5 µM and the Emax was 63%. Besides, in the data set on HepG2 cells [4], the “MMP assays efficacy (%) qHTS-HepG2” value was -99±7%. Moreover, in the data set with HepG2 cells [4] (setting [6]), the 50% inhibitory concentration (IC50) is 48.8 ± 9.17 µM.
For the compound `CCCN(CC1CC1)c1c([N+](=O)[O-])cc(C(F)(F)F)cc1[N+](=O)[O-]` [Profluralin], the “MMP assays efficacy (%) Rat Hepatocytes” value with rat primary hepatocytes [1] is recorded as -37±10%. The values for the IC50 with rat primary hepatocytes [2], in the data set on HepG2 cells [3] and in the data set on HepG2 cells [4] (setting [6]) were 25.1 ± 35.4 µM, 39.8 µM and 21.7 ± 8.04 µM, respectively. In addition, the Emax in the data set with HepG2 cells [3] was 58%. Also, the “MMP assays efficacy (%) qHTS-HepG2” value in the data set on HepG2 cells [4] is -76±20%.
Consider `C[C@]12CC[C@@H]3c4ccc(O)cc4C[C@@H](CCCCCCCCC[S+]([O-])CCCC(F)(F)C(F)(F)F)[C@H]3[C@@H]1CC[C@@H]2O` (stereo partly drawn) [Fulvestrant], for which the “MMP assays efficacy (%) Rat Hepatocytes” value in the data set on rat primary hepatocytes [1] was -48±0%. In addition, the IC50 with rat primary hepatocytes [2] is 8.84 ± 12 µM; in the data set with HepG2 cells [3], 5.48 µM; with HepG2 cells [4] (setting [6]), 5.86 ± 0.82 µM. Moreover, the Emax with HepG2 cells [3] was 94%. The “MMP assays efficacy (%) qHTS-HepG2” value with HepG2 cells [4] is -99±7%.
Consider `O=C(NC(=O)c1c(F)cccc1F)Nc1ccc(Cl)c(Oc2ncc(C(F)(F)F)cc2Cl)c1` [Fluazuron], for which the “MMP assays efficacy (%) Rat Hepatocytes” value with rat primary hepatocytes [1] is -64±17%. Besides, the values for the IC50 with rat primary hepatocytes [2], in the data set on HepG2 cells [3] and with HepG2 cells [4] (setting [6]) were 9.83 ± 13.6 µM, 12.3 µM and 3.96 ± 2.31 µM, respectively. Besides, in the data set on HepG2 cells [3], the Emax came to 83%. Besides, the “MMP assays efficacy (%) qHTS-HepG2” value in the data set with HepG2 cells [4] is -66±7%.
As to `COc1ccc(C(c2ccc(OC)cc2)C(Cl)(Cl)Cl)cc1` [Methoxychlor], in the data set on rat primary hepatocytes [1], the “MMP assays efficacy (%) Rat Hepatocytes” value was -75±11%. The IC50 was 27.7 ± 11 µM in the data set on rat primary hepatocytes [2], 28.2 µM in the data set on HepG2 cells [3] and 26.3 ± 8.69 µM with HepG2 cells [4] (setting [6]). In addition, the Emax with HepG2 cells [3] turned out to be 88%. In the data set on HepG2 cells [4], the “MMP assays efficacy (%) qHTS-HepG2” value is -101±17%.
For `COP(=S)(OC)Oc1cc(Cl)c(Br)cc1Cl` [Bromofos], the “MMP assays efficacy (%) Rat Hepatocytes” value in the data set with rat primary hepatocytes [1] was -111±7%. The IC50 was 22.7 ± 10.4 µM in the data set with rat primary hepatocytes [2], 8.91 µM in the data set on HepG2 cells [3] and 7.7 ± 1.63 µM with HepG2 cells [4] (setting [5]). Also, the Emax with HepG2 cells [3] worked out at 95%. In addition, the “MMP assays efficacy (%) qHTS-HepG2” value with HepG2 cells [4] was -105±8%.
Regarding `Cc1cccc(N)c1N` [3-Methylbenzene-1,2-diamine], the “MMP assays efficacy (%) Rat Hepatocytes” value with rat primary hepatocytes [1] is recorded as -56±11%. The IC50 is 36.6 ± 11.8 µM in the data set with rat primary hepatocytes [2], 28.2 µM in the data set on HepG2 cells [3] and 21.7 ± 3.65 µM in the data set on HepG2 cells [4] (setting [5]). In addition, the Emax with HepG2 cells [3] amounted to 90%. In the data set with HepG2 cells [4], the “MMP assays efficacy (%) qHTS-HepG2” value is given as -67±14%.
In the case of `O=c1c(O)c(-c2ccc(O)cc2)oc2cc(O)cc(O)c12` [Kaempferol], the “MMP assays efficacy (%) Rat Hepatocytes” value with rat primary hepatocytes [1] is reported as -84±55%. Also, the IC50 in the data set with rat primary hepatocytes [2] was 24.1 ± 8.76 µM; in the data set on HepG2 cells [3], 6.76 µM; with HepG2 cells [4] (setting [6]) it was 2.56 ± 3.04 µM. Besides, the Emax in the data set on HepG2 cells [3] worked out at 96%. Moreover, the “MMP assays efficacy (%) qHTS-HepG2” value with HepG2 cells [4] was -100±8%.
